Laboratory results: ChEMBL document CHEMBL1158340, “Organoiodine (III)-mediated synthesis of 3-aryl/heteroaryl-5,7-dimethyl-1,2,4-triazolo[4,3-c]pyrimidines as antibacterial agents” (2009)
Converted amounts (≈) assume the structure as drawn. The source made the active and inactive calls. The rule behind the calls is not given here.

Columns and labels:
Type in all cases: functional
Bacillus subtilis [1] = experiment: Antibacterial activity against Bacillus subtilis MTCC 8509 at 10 ug/mL by agar well diffusion method; settings: for zone of inhibition at 10 µg/mL: read-out: DIZ
Bacillus subtilis [2] = experiment: Antibacterial activity against Bacillus subtilis MTCC 8509 at 50 ug/mL by agar well diffusion method; settings: for zone of inhibition at 50 µg/mL: read-out: DIZ
Bacillus subtilis [3] = experiment: Antibacterial activity against Bacillus subtilis MTCC 8509 at 100 ug/mL by agar well diffusion method; settings: read-out: DIZ
[4] = test system: Geobacillus stearothermophilus; experiment: Antibacterial activity against Bacillus stearothermophilus MTCC 8508 at 10 ug/mL by agar well diffusion method; settings: for zone of inhibition at 10 µg/mL: read-out: DIZ
[5] = test system: Geobacillus stearothermophilus; experiment: Antibacterial activity against Bacillus stearothermophilus MTCC 8508 at 50 ug/mL by agar well diffusion method; settings: for zone of inhibition at 50 µg/mL: read-out: DIZ
[6] = test system: Geobacillus stearothermophilus; experiment: Antibacterial activity against Bacillus stearothermophilus MTCC 8508 at 100 ug/mL by agar well diffusion method; settings: read-out: DIZ
Escherichia coli [7] = experiment: Antibacterial activity against Escherichia coli MTCC 51 at 10 ug/mL by agar well diffusion method; settings: for zone of inhibition at 10 µg/mL: read-out: DIZ
Escherichia coli [8] = experiment: Antibacterial activity against Escherichia coli MTCC 51 at 50 ug/mL by agar well diffusion method; settings: for zone of inhibition at 50 µg/mL: read-out: DIZ
Escherichia coli [9] = experiment: Antibacterial activity against Escherichia coli MTCC 51 at 100 ug/mL by agar well diffusion method; settings: read-out: DIZ
Pseudomonas putida [10] = experiment: Antibacterial activity against Pseudomonas putida MTCC 121 at 10 ug/mL by agar well diffusion method; settings: for zone of inhibition at 10 µg/mL: read-out: DIZ
Pseudomonas putida [11] = experiment: Antibacterial activity against Pseudomonas putida MTCC 121 at 50 ug/mL by agar well diffusion method; settings: read-out: DIZ
Pseudomonas putida [12] = experiment: Antibacterial activity against Pseudomonas putida MTCC 121 at 100 ug/mL by agar well diffusion method; settings: read-out: DIZ
Bacillus subtilis [13] = experiment: Antibacterial activity against Bacillus subtilis MTCC 8509 after 24 hrs; settings: MTCC 8509, 24 h
[14] = test system: Geobacillus stearothermophilus; experiment: Antibacterial activity against Bacillus stearothermophilus MTCC 8508 after 24 hrs; settings: MTCC 8508, 24 h
Escherichia coli [15] = experiment: Antibacterial activity against Escherichia coli MTCC 51 after 24 hrs; settings: MTCC 51, 24 h
Pseudomonas putida [16] = experiment: Antibacterial activity against Pseudomonas putida MTCC 121 after 24 hrs; settings: MTCC 121, 24 h

| Compound | MIC (Bacillus subtilis [13]) | MIC [14] | MIC (Escherichia coli [15]) | MIC (Pseudomonas putida [16]) | zone of inhibition at 10 µg/mL (Bacillus subtilis [1]) | zone of inhibition at 50 µg/mL (Bacillus subtilis [2]) | zone of inhibition at 100 µg/mL (Bacillus subtilis [3]) | zone of inhibition at 10 µg/mL [4] | zone of inhibition at 50 µg/mL [5] | zone of inhibition at 100 µg/mL [6] | zone of inhibition at 10 µg/mL (Escherichia coli [7]) | zone of inhibition at 50 µg/mL (Escherichia coli [8]) | zone of inhibition at 100 µg/mL (Escherichia coli [9]) | zone of inhibition at 10 µg/mL (Pseudomonas putida [10]) | zone of inhibition at 50 µg/mL (Pseudomonas putida [11]) | zone of inhibition at 100 µg/mL (Pseudomonas putida [12]) | Activity (Bacillus subtilis [1]) | Activity (Pseudomonas putida [10]) | other results |
| --- | --- | --- | --- | --- | --- | --- | --- | --- | --- | --- | --- | --- | --- | --- | --- | --- | --- | --- | --- |
| Cc1cc2nnc(-c3cccs3)n2c(C)n1 | > 250 µg/mL | 64 µg/mL (≈ 278 µM) | 64 µg/mL (≈ 278 µM) | > 250 µg/mL |  | 8.34 mm | 13.7 mm | 9.74 mm | 16.7 mm | 25.7 mm | 10.3 mm | 18.7 mm | 26.3 mm |  | 8.33 mm | 12.3 mm | inactive | inactive |  |
| Cc1cc2nnc(-c3ccc(Cl)cc3Cl)n2c(C)n1 | 4 µg/mL (≈ 13.6 µM) | 4 µg/mL (≈ 13.6 µM) | 1 µg/mL (≈ 3.41 µM) | 4 µg/mL (≈ 13.6 µM) | 30.7 mm | 47.7 mm | 67.3 mm | 29.7 mm | 48.3 mm | 66.3 mm | 37.3 mm | 63.7 mm | 75.3 mm | 29.3 mm | 49.7 mm | 67.7 mm |  |  |  |
| COc1cc(O)ccc1-c1nnc2cc(C)nc(C)n12 | 8 µg/mL (≈ 29.6 µM) | 4 µg/mL (≈ 14.8 µM) | 4 µg/mL (≈ 14.8 µM) | 2 µg/mL (≈ 7.4 µM) | 27.3 mm | 42.7 mm | 61.7 mm | 30.7 mm | 46.7 mm | 66.3 mm | 29.3 mm | 46.3 mm | 66.7 mm | 32.7 mm | 49.3 mm | 72.7 mm |  |  |  |
| Cc1cc2nnc(-c3cccnc3)n2c(C)n1 | 4 µg/mL (≈ 17.8 µM) | 8 µg/mL (≈ 35.5 µM) | 8 µg/mL (≈ 35.5 µM) | 2 µg/mL (≈ 8.88 µM) | 29.3 mm | 46.3 mm | 65.7 mm | 25.3 mm | 39.7 mm | 56.3 mm | 25.7 mm | 39.3 mm | 57.3 mm | 36.7 mm | 59.3 mm | 69.7 mm |  |  |  |
| Cc1cc2nnc(-c3ccc([N+](=O)[O-])cc3)n2c(C)n1 | 250 µg/mL (≈ 928 µM) | > 250 µg/mL | 250 µg/mL (≈ 928 µM) | 125 µg/mL (≈ 464 µM) |  | 9.66 mm | 14.3 mm |  | 10.3 mm | 16.7 mm |  | 8.33 mm | 13.7 mm |  | 12.3 mm | 19.7 mm | inactive | inactive | Activity [4]: inactive; Activity (Escherichia coli [7]): inactive |
| CN[C@@H]1[C@H](O[C@H]2[C@H](O[C@H]3[C@H](O)[C@@H](O)[C@H](N=C(N)N)[C@@H](O)[C@@H]3N=C(N)N)O[C@@H](C)[C@]2(O)C=O)O[C@@H](CO)[C@H](O)[C@H]1O [STREPTOMYCIN] | 2 µg/mL (≈ 3.44 µM) | 2 µg/mL (≈ 3.44 µM) | 4 µg/mL (≈ 6.88 µM) | 4 µg/mL (≈ 6.88 µM) | 36.4 mm | 57.4 mm | 73.2 mm | 33.2 mm | 49.2 mm | 67.2 mm | 26.4 mm | 49.4 mm | 69.4 mm | 38.2 mm | 48.2 mm | 72.2 mm |  |  |  |
| Cc1cc2nnc(-c3ccccc3)n2c(C)n1 | > 250 µg/mL | > 250 µg/mL | > 250 µg/mL | > 250 µg/mL |  | 8.34 mm | 13.3 mm |  |  | 10.7 mm |  |  | 11.3 mm |  | 8.33 mm | 12.7 mm | inactive | inactive | Activity [4]: inactive; Activity [5]: inactive; Activity (Escherichia coli [7]): inactive; Activity (Escherichia coli [8]): inactive |
| COc1ccc(OC)c(-c2nnc3cc(C)nc(C)n23)c1 | > 250 µg/mL | > 250 µg/mL | 125 µg/mL (≈ 440 µM) | > 250 µg/mL |  |  | 11.3 mm |  | 8.33 mm | 13.7 mm |  | 10.7 mm | 19.3 mm |  | 9.66 mm | 13.7 mm | inactive | inactive | Activity (Bacillus subtilis [2]): inactive; Activity [4]: inactive; Activity (Escherichia coli [7]): inactive |
| O=C(N[C@H](CO)[C@H](O)c1ccc([N+](=O)[O-])cc1)C(Cl)Cl [CHLORAMPHENICOL] | 2 µg/mL (≈ 6.19 µM) | 2 µg/mL (≈ 6.19 µM) | 4 µg/mL (≈ 12.4 µM) | 2 µg/mL (≈ 6.19 µM) | 36.3 mm | 57.2 mm | 74.2 mm | 35.3 mm | 53.2 mm | 77.2 mm | 30.3 mm | 50.4 mm | 75.4 mm | 29.3 mm | 53.4 mm | 71.2 mm |  |  |  |

More lines, main results first:

| MIC (Bacillus subtilis [13]) | MIC [14] | MIC (Escherichia coli [15]) | MIC (Pseudomonas putida [16]) | Compound | zone of inhibition at 10 µg/mL (Bacillus subtilis [1]) | zone of inhibition at 50 µg/mL (Bacillus subtilis [2]) | zone of inhibition at 100 µg/mL (Bacillus subtilis [3]) | zone of inhibition at 10 µg/mL [4] | zone of inhibition at 50 µg/mL [5] | zone of inhibition at 100 µg/mL [6] | zone of inhibition at 10 µg/mL (Escherichia coli [7]) | zone of inhibition at 50 µg/mL (Escherichia coli [8]) | zone of inhibition at 100 µg/mL (Escherichia coli [9]) | zone of inhibition at 10 µg/mL (Pseudomonas putida [10]) | zone of inhibition at 50 µg/mL (Pseudomonas putida [11]) | zone of inhibition at 100 µg/mL (Pseudomonas putida [12]) | Activity (Bacillus subtilis [1]) | Activity (Pseudomonas putida [10]) | other results |
| --- | --- | --- | --- | --- | --- | --- | --- | --- | --- | --- | --- | --- | --- | --- | --- | --- | --- | --- | --- |
| 16 µg/mL (≈ 66 µM) | 16 µg/mL (≈ 66 µM) | 32 µg/mL (≈ 132 µM) | 32 µg/mL (≈ 132 µM) | Cc1cc2nnc(-c3ccc(F)cc3)n2c(C)n1 | 13.7 mm | 22.3 mm | 41.7 mm | 10.1 mm | 23.4 mm | 41.8 mm | 11.3 mm | 14.3 mm | 26.4 mm | 9.67 mm | 15.3 mm | 23.2 mm |  |  |  |
| 8 µg/mL (≈ 31.5 µM) | 16 µg/mL (≈ 62.9 µM) | 16 µg/mL (≈ 62.9 µM) | 16 µg/mL (≈ 62.9 µM) | COc1ccc(-c2nnc3cc(C)nc(C)n23)cc1 | 27.3 mm | 39.7 mm | 59.7 mm | 12.3 mm | 20.7 mm | 41.3 mm | 12.3 mm | 21.3 mm | 40.7 mm | 11.7 mm | 20.3 mm | 40.7 mm |  |  |  |
| > 250 µg/mL | 125 µg/mL (≈ 483 µM) | > 250 µg/mL | > 250 µg/mL | Cc1cc2nnc(-c3ccc(Cl)cc3)n2c(C)n1 |  |  | 11.3 mm |  | 11.8 mm | 18.7 mm |  |  | 10.7 mm |  | 8.33 mm | 14.6 mm | inactive | inactive | Activity (Bacillus subtilis [2]): inactive; Activity [4]: inactive; Activity (Escherichia coli [7]): inactive; Activity (Escherichia coli [8]): inactive |
| 16 µg/mL (≈ 67.1 µM) | 32 µg/mL (≈ 134 µM) | 16 µg/mL (≈ 67.1 µM) | 8 µg/mL (≈ 33.6 µM) | Cc1ccc(-c2nnc3cc(C)nc(C)n23)cc1 | 12.3 mm | 21.3 mm | 42.1 mm | 9.74 mm | 19.7 mm | 30.3 mm | 11.7 mm | 22.2 mm | 40.2 mm | 26.7 mm | 40.3 mm | 59.7 mm |  |  |  |
| 8 µg/mL (≈ 26.4 µM) | 8 µg/mL (≈ 26.4 µM) | 16 µg/mL (≈ 52.8 µM) | 4 µg/mL (≈ 13.2 µM) | Cc1cc2nnc(-c3ccc(Br)cc3)n2c(C)n1 | 27.7 mm | 40.7 mm | 59.3 mm | 26.7 mm | 41.7 mm | 60.7 mm | 23.3 mm | 31.7 mm | 47.3 mm | 28.3 mm | 48.7 mm | 66.7 mm |  |  |  |
